Results published in patent US20090239868A1 (priority 2007, published 2009).
Entries after “also recorded” stand apart in the source; their conditions may differ.

Experiments:
[1] = system: cardiac infarction (ischemia-reperfusion) model rats; test: Fibrosis ratio in left ventricle cardiac muscle, cardiac infarction (ischemia-reperfusion) model rats, Azan-Mallory stain; format: in vivo, rat; conditions: p.o., once a day for 28 days, control 7.5 ± 1.1
Method: After the 8-week old rats (SPF: male SD, Japan SLC, Inc.) were anesthetized with Pentobarbital Sodium, their hearts were exteriorized, and the left anterior descending coronary arteries (LAD) were ligated by a suture needle with a thread. 30 minutes later, the ligations were removed, and the blood was reperfused for 24 hours. After that, the compound (1) (10 mg/kg/day, 30 mg/kg/day, 100 mg/kg/day) was orally administered once a day for 28 continuous days. Moreover, as a control, rats to which the compound (1) was not administered after the reperfusion (cardiac infarction (ischemia-reperfusion) model rats) were prepared. On the 29th day after the reperfusion, after preparing paraffin sections of cardiac muscle in the left ventricle of each rat, Azan-Mallory stain was carried out, the ratios of the stained area occupying the myocardial necrosis distant sites were obtained as the ratios of fibrosis by the image analyses.

[2] = system: mustard oil infusion rats (cystitis rat); test: Bladder fibrosis score, mustard oil infusion rats (cystitis rat), Azan stain; format: in vivo; conditions: 100 mg/kg/day orally for 10 days; control 2.6±0.1; p<0.01 Wilcoxon test
Method: A polyethylene tube was inserted to the urethra of the 7 week-old rats (SPF: male Crj, Charles River Japan, Inc), and 0.4 mL of 5% mustard oil (diluted with liquid paraffin including 20% allyl isothiocyanate) was infused into the bladder. 60 minutes later, after withdrawing the liquid in the bladder with suctioning, the inside of the bladder was rinsed with saline. For 10 days including 3 days before the infusion of the mustard oil and 7 days after the infusion of the mustard oil, the compound (1) (100 mg/kg/day) was orally administered once a day (Compound (1) administered rat: n=6). Furthermore, as a control, mustard oil infusion rats (cystitis rat: n=6) to which the compound (1) was not administered were prepared. On the 8th day after the infusion of the mustard, the bladders were removed to prepare paraffin sections, the degrees of fibrosis were scored by Azan stain, and the evaluations were conducted. For the index of the scoring, those that have no abnormalities to the normal tissues being “1,” those that have minor fibrosis being “2,” those that have mild fibrosis being “3,” those that have moderate fibrosis being “4,” and those that have severe fibrosis being “5” were used. As a result, although the score of the control group was 2.6±0.1, the compound (1) administered group was 2.0±0.2, and a significant difference was confirmed (p<0.01: Wilcoxon test).

PAI-1 [3] = test: Immunostaining of PAI-1 expression cells among cells infiltrated in the lung, cigarette smoke exposed guinea pigs; format: in vivo, guinea pig
Method: Using the smoking exposure system (INH06-CIGOIA, MIPS Inc.), 6-week old guinea pigs (Std: male Hartley, Japan SLC, Inc.) were exposed to smoke of 40 cigarettes (Peace (Registered Trademark), Japan Tobacco, Inc.) a day (20 cigarettes twice) for 25 continuous days (Chronic Obstructive Pulmonary Disease (COPD) model group: Control group: n=10). To these guinea pigs, from the day of exposure to the smoke of tobacco, the compound (1) (30 mg/kg/day or 100 mg/kg/day) or prednisolone (10 mg/kg/day) was continuously administered orally once a day for 25 days (Compound (1) 30 mg administered group: n=5, Compound (1) 100 mg administered group: n=5, Prednisolone administered group: n=5). Furthermore, as a normal group, guinea pigs (n=5) exposed to air without the administration of the compound (1) and prednisolone were prepared. On the following day of the last exposure, after preparing paraffin sections in the lungs of each guinea pig, collagen was stained by the Masson-trichrome method, and the accumulations of collagen in the alveoli were measured by the area rate with the image analysis.
Next, the above paraffin section was stained by the immunostaining method using an anti PAI-1 antibody (PAI-1H-135; Santa Cruz; 250-fold dilution), and the ratio of PAI-1 expression cells to the total cell numbers infiltrated in the lung was measured. […]

PAI-1 [4] = test: PAI-1 concentration in plasma of type II diabetes patients with obesity (Human PAI-1 ELISA Kit); format: in vivo; conditions: 200 mg orally twice a day for 12 weeks, plasma at 2, 4, 8, 12 weeks, FIG. 1
Method: To 10 patients of the type II diabetes with obesity where PAI-1 overproduction was recognized, the compound (1) was administered orally 200 mg each time twice a day (after breakfast and after dinner) for 12 weeks. Blood was collected from each patient just before the administration of the compound (1) and 2, 4, 8, and 12 weeks later, and the PAI-1 concentration in plasma was measured using Human PAI-1 ELISA Kit (AssayPro).

SMILES: O=C(Nc1cc(C(F)(F)F)cc(C(F)(F)F)c1)c1cc(Cl)ccc1OC(=O)N1CCOCC1 [Compound (1)]
- Fibrosis ratio ([1]; 10 mg/kg): 5.5 ± 0.4%
- Fibrosis ratio ([1]; 30 mg/kg): 4.9 ± 0.4%
- Fibrosis ratio ([1]; 100 mg/kg): 4.3 ± 0.5%
- fibrosis score (1 no abnormalities to 5 severe fibrosis) [2]: 2.0±0.2
- total number of the infiltrating cells versus normal group (PAI-1 [3]; compound (1) 100 mg administered group): at the same level
- ratio of PAI-1 expression cells to the total number of infiltrating cells in the lung (PAI-1 [3]; oral once a day for 25 days, FIG. 3): decreased; also recorded: improved to the level of the normal group
- concentration of PAI-1 in blood (PAI-1 [4]): decreased
